From paper PMC6295334 (ACS chemical biology, 2017) come the findings set out here.

Read-outs that look alike come from different tables or passages of the source.

For orientation: IC50 means the point on the concentration scale where inhibition reaches its midpoint.

Experiment [1] concerns the target T1, Alg44 (Pseudomonas aeruginosa, UniProt Q9HY69). In words: intact protein LC-MS adduct. Type of experiment: binding.
In experiment [2] the target is T1, Alg44. Kind of experiment: intact protein LC-MS adduct. It is filed as binding. The source holds these as a separate data set.

T1 sequence (Q9HY69 14-122): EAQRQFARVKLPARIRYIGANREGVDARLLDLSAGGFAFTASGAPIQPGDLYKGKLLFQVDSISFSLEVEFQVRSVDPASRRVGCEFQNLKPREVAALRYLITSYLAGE

As to AC1LFHI9, inhibition in experiment [1] was half-maximal at 63.5 ± 1.3 µM (IC50).

The compound `CCC1(C)Cc2ccccc2-c2nc3[nH][nH]c(=S)n3c(=O)c21` (centres unmarked) [compound 925] came in with an IC50 in experiment [2] of 58.1 ± 1.2 µM.
